Data as given in the supplement of paper PMC8960247.
Counter-ions that a name gives are not always drawn. ± gives the standard error.

Legend:
621-102 (TSC2-deficient) = assay: relative viability vs DMSO; higher = less cytotoxic; conditions: serum: 10% FBS, 72 h
621-103 (TSC2-rescued) = assay: as above; conditions: serum: 10% FBS, 72 h
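Note: immortalized renal angiomyolipoma cells stably carrying empty vector or TSC2, dosed in 384-well plates in DMEM, viability normalized to vehicle-treated wells within each plate.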

Row | SMILES | relative viability (621-102 (TSC2-deficient); 0.0001 µM) [%] | relative viability (621-102 (TSC2-deficient); 0.001 µM) [%] | relative viability (621-102 (TSC2-deficient); 0.01 µM) [%] | relative viability (621-102 (TSC2-deficient); 0.1 µM) [%] | relative viability (621-102 (TSC2-deficient); 1 µM) [%] | relative viability (621-102 (TSC2-deficient); 10 µM) [%] | relative viability (621-103 (TSC2-rescued); 0.0001 µM) [%] | relative viability (621-103 (TSC2-rescued); 0.001 µM) [%] | relative viability (621-103 (TSC2-rescued); 0.01 µM) [%] | relative viability (621-103 (TSC2-rescued); 0.1 µM) [%] | relative viability (621-103 (TSC2-rescued); 1 µM) [%] | relative viability (621-103 (TSC2-rescued); 10 µM) [%]
1 | Cc1cc(OCCCS(C)(=O)=O)cc(C)c1-c1cccc(COc2ccc3c(c2)OC[C@H]3CC(=O)O)c1 [TAK-875] | 61.2 ± 7.8 | 61.5 ± 4 | 75.9 ± 5.2 | 80.9 ± 4.5 | 84.24 ± 0.76 | 84.2 ± 5.3 | 103 ± 3 | 102 ± 1.9 | 103.7 ± 0.45 | 102.5 ± 0.61 | 103 ± 3.5 | 95.16 ± 0.36
2 | Nc1nc(N)c2nc(-c3cccc(O)c3)c(-c3cccc(O)c3)nc2n1 [TG100-115] | 98.9 ± 7.9 | 105 ± 4.8 | 110.59 ± 0.023 | 112 ± 1.9 | 111 ± 5.8 | 95.6 ± 3.2 | 99.62 ± 0.33 | 99.8 ± 1.2 | 106 ± 4.6 | 99.3 ± 0.84 | 99.5 ± 1.8 | 100.3 ± 1
3 | Cc1cc(C(C)Nc2ccccc2)c2nc(N3CCOCC3)cc(=O)n2c1 (stereo not drawn) [TGX-221] | 94.1 ± 1.7 | 106 ± 7.4 | 114 ± 3.3 | 112 ± 3.6 | 114 ± 4 | 101 ± 1.8 | 98.3 ± 0.45 | 98.8 ± 0.21 | 97.7 ± 2 | 98.8 ± 1.6 | 99.4 ± 1.5 | 102 ± 1.8
4 | Cc1[nH]c(/C=C2\C(=O)Nc3ccccc32)c(C)c1CCC(=O)O [TSU-68] | 94 ± 1.4 | 106 ± 3.3 | 119 ± 3.6 | 110 ± 2.1 | 91.7 ± 3.8 | 95.8 ± 2.4 | 101 ± 1.9 | 103 ± 1.2 | 101 ± 2.4 | 102 ± 1.7 | 102 ± 1.9 | 95.7 ± 1.1
5 | CN1CC(=O)N2[C@H](c3ccc4c(c3)OCO4)c3[nH]c4ccccc4c3C[C@@H]2C1=O [Tadalafil (Cialis)] | 107.45 ± 0.0089 | 97.8 ± 3.3 | 107 ± 4.8 | 101 ± 2 | 94.3 ± 2.4 | 107.7 ± 0.44 | 91.2 ± 1.9 | 92.87 ± 0.31 | 102.7 ± 0.92 | 92.11 ± 0.35 | 96.51 ± 0.38 | 101 ± 2
6 | CC/C(=C(\c1ccccc1)c1ccc(OCCN(C)C)cc1)c1ccccc1 [Tamoxifen Citrate] | 102.7 ± 0.75 | 98.8 ± 1.8 | 111 ± 2.6 | 98.76 ± 0.6 | 100.8 ± 1 | 80.9 ± 5.2 | 101 ± 3.6 | 102 ± 3.1 | 104 ± 5.2 | 101 ± 2.4 | 107 ± 3.5 | 48.1 ± 2.6
7 | CCOc1ccccc1OCCN[C@H](C)Cc1ccc(OC)c(S(N)(=O)=O)c1 [Tamsulosin HCl] | 104 ± 3.8 | 99.7 ± 2.3 | 99.5 ± 2.2 | 102 ± 5 | 97 ± 3.9 | 98.4 ± 4 | 107 ± 5.6 | 104 ± 4.7 | 105 ± 2 | 103 ± 2.4 | 96.4 ± 7 | 98.4 ± 2.6
8 | COc1cc2c(N3CCN(C(=O)Nc4ccc(OC(C)C)cc4)CC3)ncnc2cc1OCCCN1CCCCC1 [Tandutinib (MLN518)] | 107 ± 3.1 | 97.9 ± 4.1 | 99.7 ± 0.23 | 96.6 ± 3 | 98.2 ± 3.4 | 80 ± 2.4 | 99.4 ± 1.1 | 99.87 ± 0.96 | 101 ± 2.1 | 101 ± 1.9 | 99.31 ± 0.29 | 83.4 ± 1.2
9 | CNC(=O)c1cc(COc2nnc(Nc3ccc(Cl)cc3)c3ccoc23)ccn1 [Telatinib (BAY57-9352)] | 94.64 ± 0.47 | 95.1 ± 4.9 | 83.7 ± 2.7 | 94.8 ± 1.5 | 84.3 ± 1.3 | 48.4 ± 3.9 | 114 ± 2.4 | 103.1 ± 0.34 | 100 ± 2.4 | 108 ± 2 | 104 ± 1.8 | 55.8 ± 4.5
10 | CCCc1nc2c(C)cc(-c3nc4ccccc4n3C)cc2n1Cc1ccc(-c2ccccc2C(=O)O)cc1 [Telmisartan] | 104 ± 2.5 | 104 ± 1.6 | 103 ± 2.6 | 105 ± 1.2 | 112 ± 6.6 | 113.2 ± 0.47 | 101 ± 2.7 | 97.8 ± 4.9 | 95.37 ± 0.79 | 103.34 ± 0.025 | 101 ± 4.2 | 107 ± 2.6
11 | C[C@H](Cn1cnc2c(N)ncnc21)OCP(=O)(O)O [Tenofovir] | 66.9 ± 0.97 | 73.2 ± 1.9 | 75.6 ± 11 | 71.7 ± 5 | 70.8 ± 6.7 | 60.2 ± 5.8 | 102 ± 5.5 | 102 ± 1.9 | 103 ± 5.3 | 109 ± 4.2 | 94 ± 7.9 | 92.6 ± 4.3
12 | CN(C/C=C/C#CC(C)(C)C)Cc1cccc2ccccc12 [Terbinafine HCl] | 96.9 ± 2.1 | 97 ± 1.5 | 92 ± 0.96 | 94.1 ± 2.5 | 101 ± 3 | 91.3 ± 3.5 | 101 ± 3.3 | 99.3 ± 5.4 | 104 ± 2.1 | 101 ± 1.3 | 101 ± 1.3 | 97.22 ± 0.58
13 | CCC(=O)O[C@H]1CC[C@H]2[C@@H]3CCC4=CC(=O)CC[C@]4(C)[C@H]3CC[C@]12C [Testosterone propionate (Agovirin)] | 104 ± 2.2 | 104 ± 1.2 | 98.7 ± 3.7 | 104 ± 1.1 | 104 ± 2.2 | 103 ± 4.2 | 109 ± 3.1 | 105 ± 1.9 | 104 ± 1.2 | 98.7 ± 2.8 | 102.1 ± 0.64 | 87.6 ± 1.6
14 | CCCCNc1ccc(C(=O)OCCN(C)C)cc1 [Tetracaine HCl] | 113 ± 2.6 | 105 ± 2.3 | 100 ± 3.7 | 102 ± 3.7 | 102 ± 3.2 | 105 ± 1.1 | 72.9 ± 4.8 | 91.42 ± 0.14 | 90.6 ± 5.6 | 103 ± 6.7 | 78.5 ± 6.8 | 74.1 ± 2.6
15 | C[N+]1(C)[C@@H]2C[C@@H](OC(=O)C(O)(c3cccs3)c3cccs3)C[C@H]1[C@@H]1O[C@@H]12 [Tiotropium Bromide hydrate] | 119 ± 6 | 110 ± 3.6 | 116.3 ± 0.16 | 112.5 ± 0.9 | 116 ± 1.3 | 117.1 ± 0.39 | 77.6 ± 0.97 | 97.55 ± 0.64 | 105.9 ± 0.43 | 100 ± 2.9 | 103 ± 3.4 | 103 ± 2.6
16 | C[N+]1(C)[C@@H]2C[C@@H](OC(=O)C(O)(c3cccs3)c3cccs3)C[C@H]1[C@@H]1O[C@@H]12 [Tiotropium] | 119 ± 3.2 | 114 ± 4.8 | 115 ± 4.8 | 111 ± 2.6 | 117 ± 4.4 | 112.5 ± 1.1 | 82.2 ± 1.7 | 96 ± 3.8 | 103.3 ± 0.58 | 96.8 ± 4.6 | 102.87 ± 0.086 | 100.4 ± 0.9
17 | O=c1oc2cc(O)ccc2s1 [Tioxolone] | 103 ± 7.6 | 105.7 ± 0.97 | 105 ± 4 | 94.8 ± 1.4 | 104 ± 2.6 | 99.31 ± 0.92 | 71.1 ± 7.9 | 80 ± 6.3 | 75.42 ± 0.21 | 80.9 ± 4.5 | 71.5 ± 8.5 | 60.9 ± 5
18 | O=c1n(CCCN2CCN(c3cccc(Cl)c3)CC2)nc2ccccn12 [Trazodone HCl] | 103 ± 1.2 | 103 ± 1.8 | 105 ± 2.1 | 99.8 ± 4.6 | 107 ± 1.8 | 103 ± 4.7 | 77.1 ± 6.5 | 84.3 ± 2.8 | 84.8 ± 4 | 86.6 ± 3.6 | 68.2 ± 3.2 | 63.7 ± 7.5
19 | CC(/C=C/C(=O)NO)=C\[C@@H](C)C(=O)c1ccc(N(C)C)cc1 [Trichostatin A] | 113.6 ± 0.35 | 117 ± 1.7 | 117.6 ± 0.42 | 104.3 ± 0.83 | 110 ± 1.2 | 74.9 ± 3.8 | 100.8 ± 0.21 | 101 ± 1.4 | 98.31 ± 0.47 | 99.71 ± 0.22 | 96.9 ± 1.4 | 44.8 ± 2.1
